Columns and labels:
Format in all cases: cell-based, human
[1] = system: MiaPaCa-2 cells; experiment: MTT assay of MiaPaCa2 cultures, single 50 μM dose; parameters: rel amt (relative value set to the control): unit not given here; conditions: MiaPaCa2, 50 μM; for MTT assay result, av-blank: average minus blank; for MTT assay result, av: average of 7 runs
Method in brief: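 MiaPaCa-2 cells given a single 50 μM dose of test agent (tocotrienols, tocopherols, tocopherol succinate, geranylgeraniol or succinic acid) or vehicle (ethanol-extracted olive oil). Viability read by MTT at 48 or 120 hours after treatment, alongside vehicle-only control culture.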

[2] = system: BXPC3 cells; experiment: MTT assay of BXPC3 cultures, single 50 μM dose; parameters: MTT assay result, run 1 / MTT assay result, run 2 / MTT assay result, run 3 / MTT assay result, run 4 / MTT assay result, run 5 / MTT assay result, run 6 / MTT assay result, run 7 / MTT assay result, av (average) / MTT assay result, av-blank / MTT assay result, av: unit not given here; conditions: BXPC3, 50 μM; for MTT assay result, av-blank: average minus blank; for MTT assay result, av (average) / MTT assay result, av: average of 7 runs
Method in brief: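 BXPC3 cells in 10% FBS medium at 37° C, 5% CO2, given a single 50 μM dose of tocotrienols, tocopherols, tocopherol succinate, geranylgeraniol, succinic acid or vehicle, alongside untreated control. Viability read by MTT at 48 or 120 hours.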

[3] = system: SW1990 pancreatic cancer cells; experiment: MTS assay of SW1990 cultures, single 50 μM dose; conditions: SW1990, 50 μM
Method in brief: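 SW1990 cells were grown in DMEM with 10% FBS at 37 °C, 5% CO2. They were given one 50 μM dose of a tocotrienol, tocopherol, tocopherol succinate, geranylgeraniol or succinic acid, in an olive-oil-extract vehicle. MTS viability was read at 24, 48 or 72 h and compared with vehicle-only cultures.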

For Cc1c(O)cc2c(c1C)O[C@](C)(CCC[C@H](C)CCC[C@H](C)CCCC(C)C)CC2 [T gamma], the “rel amt (relative value set to the control)” value ([1]; 48 hours) was 94, the “MTT assay result, av-blank” value ([1]; 48 hours) was 0.292 and the “MTT assay result, av” value ([1]; 48 hours) was 0.338. The “MTT assay result, run 1” value ([1]; 48 hours) was 0.35, the “MTT assay result, run 2” value ([1]; 48 hours) was 0.323 and the “MTT assay result, run 3” value ([1]; 48 hours) was 0.312. For the same molecule, the “MTT assay result, run 4” value ([1]; 48 hours) was 0.36, the “MTT assay result, run 5” value ([1]; 48 hours) was 0.348 and the “MTT assay result, run 6” value ([1]; 48 hours) was 0.328. The “MTT assay result, run 7” value ([1]; 48 hours) was 0.348, the “rel amt (relative value set to the control)” value ([1]; 120 hours (5 days)) was 87 and the “MTT assay result, av-blank” value ([1]; 120 hours (5 days)) was 1.566. For the same molecule, the “MTT assay result, av” value ([1]; 120 hours (5 days)) was 1.618, the “MTT assay result, run 1” value ([1]; 120 hours (5 days)) was 1.52 and the “MTT assay result, run 2” value ([1]; 120 hours (5 days)) was 1.516. For the same molecule, the “MTT assay result, run 3” value ([1]; 120 hours (5 days)) was 1.547, the “MTT assay result, run 4” value ([1]; 120 hours (5 days)) was 1.625 and the “MTT assay result, run 5” value ([1]; 120 hours (5 days)) was 1.917. The “MTT assay result, run 6” value ([1]; 120 hours (5 days)) was 1.568, the “MTT assay result, run 7” value ([1]; 120 hours (5 days)) was 1.635 and the “rel amt (relative value set to the control)” value ([2]; 48 hours) was 115. The “MTT assay result, av-blank” value ([2]; 48 hours) was 0.262, the “MTT assay result, av (average)” value ([2]; 48 hours) was 0.311 and the “MTT assay result, run 1” value ([2]; 48 hours) was 0.32. The “MTT assay result, run 2” value ([2]; 48 hours) was 0.356, the “MTT assay result, run 3” value ([2]; 48 hours) was 0.335 and the “MTT assay result, run 4” value ([2]; 48 hours) was 0.304. For the same molecule, the “MTT assay result, run 5” value ([2]; 48 hours) was 0.277, the “MTT assay result, run 6” value ([2]; 48 hours) was 0.28 and the “MTT assay result, run 7” value ([2]; 48 hours) was 0.306. The “rel amt (relative value set to the control)” value ([2]; 120 hours (5 days)) was 103, the “MTT assay result, av-blank” value ([2]; 120 hours (5 days)) was 0.595 and the “MTT assay result, av” value ([2]; 120 hours (5 days)) was 0.650. For the same molecule, the “MTT assay result, run 1” value ([2]; 120 hours (5 days)) was 0.628, the “MTT assay result, run 2” value ([2]; 120 hours (5 days)) was 0.66 and the “MTT assay result, run 3” value ([2]; 120 hours (5 days)) was 0.653. For the same molecule, the “MTT assay result, run 4” value ([2]; 120 hours (5 days)) was 0.649, the “MTT assay result, run 5” value ([2]; 120 hours (5 days)) was 0.682 and the “MTT assay result, run 6” value ([2]; 120 hours (5 days)) was 0.615. For the same molecule, the “MTT assay result, run 7” value ([2]; 120 hours (5 days)) was 0.661, the “rel amnt (relative value set to the control)” value ([3]; 24 hours) was 116 and the “MTS assay result, run 1” value ([3]; 24 hours) was 0.175. For the same molecule, the “MTS assay result, run 2” value ([3]; 24 hours) was 0.165, the “MTS assay result, run 3” value ([3]; 24 hours) was 0.167 and the “MTS assay result, run 4” value ([3]; 24 hours) was 0.154. The “MTS assay result, run 5” value ([3]; 24 hours) was 0.198, the “MTS assay result, run 6” value ([3]; 24 hours) was 0.168 and the “MTS assay result, run 7” value ([3]; 24 hours) was 0.178. The “MTS assay result, run 8” value ([3]; 24 hours) was 0.16, the “MTS assay result, run 9” value ([3]; 24 hours) was 0.171 and the “rel amnt (relative value set to the control)” value ([3]; 48 hours) was 94. For the same molecule, the “MTS assay result, run 1” value ([3]; 48 hours) was 0.131, the “MTS assay result, run 2” value ([3]; 48 hours) was 0.133 and the “MTS assay result, run 3” value ([3]; 48 hours) was 0.14. For the same molecule, the “MTS assay result, run 4” value ([3]; 48 hours) was 0.141, the “MTS assay result, run 5” value ([3]; 48 hours) was 0.142 and the “MTS assay result, run 6” value ([3]; 48 hours) was 0.122. The “MTS assay result, run 7” value ([3]; 48 hours) was 0.16, the “MTS assay result, run 8” value ([3]; 48 hours) was 0.164 and the “MTS assay result, run 9” value ([3]; 48 hours) was 0.142. For the same molecule, the “rel amnt (relative value set to the control)” value ([3]; 72 hours) was 108, the “MTS assay result, run 1” value ([3]; 72 hours) was 0.5 and the “MTS assay result, run 2” value ([3]; 72 hours) was 0.497. For the same molecule, the “MTS assay result, run 3” value ([3]; 72 hours) was 0.46, the “MTS assay result, run 4” value ([3]; 72 hours) was 0.505 and the “MTS assay result, run 5” value ([3]; 72 hours) was 0.515. For the same molecule, the “MTS assay result, run 6” value ([3]; 72 hours) was 0.469, the “MTS assay result, run 7” value ([3]; 72 hours) was 0.43 and the “MTS assay result, run 8” value ([3]; 72 hours) was 0.451. For the same molecule, the “MTS assay result, run 9” value ([3]; 72 hours) was 0.478.
In the case of Cc1c(C)c2c(c(C)c1OC(=O)CCC(=O)O)CC[C@@](C)(CCC[C@H](C)CCC[C@H](C)CCCC(C)C)O2 [TS, tocopherol succinate], the “rel amt (relative value set to the control)” value ([1]; 48 hours) is reported as 48, the “MTT assay result, av-blank” value ([1]; 48 hours) is reported as 0.148 and the “MTT assay result, av” value ([1]; 48 hours) is reported as 0.194. For the same molecule, the “MTT assay result, run 1” value ([1]; 48 hours) was 0.215, the “MTT assay result, run 2” value ([1]; 48 hours) was 0.184 and the “MTT assay result, run 3” value ([1]; 48 hours) was 0.2. The “MTT assay result, run 4” value ([1]; 48 hours) was 0.187, the “MTT assay result, run 5” value ([1]; 48 hours) was 0.194 and the “MTT assay result, run 6” value ([1]; 48 hours) was 0.19. For the same molecule, the “MTT assay result, run 7” value ([1]; 48 hours) was 0.185, the “rel amt (relative value set to the control)” value ([1]; 120 hours (5 days)) was 43 and the “MTT assay result, av-blank” value ([1]; 120 hours (5 days)) was 0.773. For the same molecule, the “MTT assay result, av” value ([1]; 120 hours (5 days)) was 0.825, the “MTT assay result, run 1” value ([1]; 120 hours (5 days)) was 0.732 and the “MTT assay result, run 2” value ([1]; 120 hours (5 days)) was 0.776. The “MTT assay result, run 3” value ([1]; 120 hours (5 days)) was 0.786, the “MTT assay result, run 4” value ([1]; 120 hours (5 days)) was 0.714 and the “MTT assay result, run 5” value ([1]; 120 hours (5 days)) was 0.939. The “MTT assay result, run 6” value ([1]; 120 hours (5 days)) was 0.859, the “MTT assay result, run 7” value ([1]; 120 hours (5 days)) was 0.968 and the “rel amt (relative value set to the control)” value ([2]; 48 hours) was 100. For the same molecule, the “MTT assay result, av-blank” value ([2]; 48 hours) was 0.229, the “MTT assay result, av (average)” value ([2]; 48 hours) was 0.278 and the “MTT assay result, run 1” value ([2]; 48 hours) was 0.271. For the same molecule, the “MTT assay result, run 2” value ([2]; 48 hours) was 0.274, the “MTT assay result, run 3” value ([2]; 48 hours) was 0.296 and the “MTT assay result, run 4” value ([2]; 48 hours) was 0.271. For the same molecule, the “MTT assay result, run 5” value ([2]; 48 hours) was 0.282, the “MTT assay result, run 6” value ([2]; 48 hours) was 0.274 and the “MTT assay result, run 7” value ([2]; 48 hours) was 0.277. For the same molecule, the “rel amt (relative value set to the control)” value ([2]; 120 hours (5 days)) was 17, the “MTT assay result, av-blank” value ([2]; 120 hours (5 days)) was 0.097 and the “MTT assay result, av” value ([2]; 120 hours (5 days)) was 0.152. For the same molecule, the “MTT assay result, run 1” value ([2]; 120 hours (5 days)) was 0.192, the “MTT assay result, run 2” value ([2]; 120 hours (5 days)) was 0.127 and the “MTT assay result, run 3” value ([2]; 120 hours (5 days)) was 0.142. For the same molecule, the “MTT assay result, run 4” value ([2]; 120 hours (5 days)) was 0.162, the “MTT assay result, run 5” value ([2]; 120 hours (5 days)) was 0.116 and the “MTT assay result, run 6” value ([2]; 120 hours (5 days)) was 0.129. The “MTT assay result, run 7” value ([2]; 120 hours (5 days)) was 0.199, the “rel amnt (relative value set to the control)” value ([3]; 24 hours) was 110 and the “MTS assay result, run 1” value ([3]; 24 hours) was 0.155. The “MTS assay result, run 2” value ([3]; 24 hours) was 0.168, the “MTS assay result, run 3” value ([3]; 24 hours) was 0.164 and the “MTS assay result, run 4” value ([3]; 24 hours) was 0.158. For the same molecule, the “MTS assay result, run 5” value ([3]; 24 hours) was 0.155, the “MTS assay result, run 6” value ([3]; 24 hours) was 0.163 and the “MTS assay result, run 7” value ([3]; 24 hours) was 0.165. The “MTS assay result, run 8” value ([3]; 24 hours) was 0.167, the “MTS assay result, run 9” value ([3]; 24 hours) was 0.162 and the “rel amnt (relative value set to the control)” value ([3]; 48 hours) was 104. The “MTS assay result, run 1” value ([3]; 48 hours) was 0.122, the “MTS assay result, run 2” value ([3]; 48 hours) was 0.166 and the “MTS assay result, run 3” value ([3]; 48 hours) was 0.16. The “MTS assay result, run 4” value ([3]; 48 hours) was 0.135, the “MTS assay result, run 5” value ([3]; 48 hours) was 0.148 and the “MTS assay result, run 6” value ([3]; 48 hours) was 0.174. For the same molecule, the “MTS assay result, run 7” value ([3]; 48 hours) was 0.18, the “MTS assay result, run 8” value ([3]; 48 hours) was 0.173 and the “MTS assay result, run 9” value ([3]; 48 hours) was 0.157. The “rel amnt (relative value set to the control)” value ([3]; 72 hours) was 207, the “MTS assay result, run 1” value ([3]; 72 hours) was 0.998 and the “MTS assay result, run 2” value ([3]; 72 hours) was 0.962. The “MTS assay result, run 3” value ([3]; 72 hours) was 1.02, the “MTS assay result, run 4” value ([3]; 72 hours) was 0.887 and the “MTS assay result, run 5” value ([3]; 72 hours) was 0.936. The “MTS assay result, run 6” value ([3]; 72 hours) was 0.897, the “MTS assay result, run 7” value ([3]; 72 hours) was 0.85 and the “MTS assay result, run 8” value ([3]; 72 hours) was 0.801. The “MTS assay result, run 9” value ([3]; 72 hours) was 0.918.

— patent publication US8846653B2, “Delta-tocotrienol treatment and prevention of pancreatic cancer” (University of South Florida, priority 2006, dated 2014)
